{"source": "patent EP1137386B1", "about": "“USE OF TRICLOSAN AS AN AN[…]” (Jawaharlal Nehru Centre For Advanced Scientific Research, priority 1999, dated 2001)", "key": {"Plasmodium falciparum": {"test_system": "Plasmodium falciparum", "test": "In vitro effect on growth of Plasmodium falciparum (parasitemia and morphology in Giemsa stained smears)", "assay_type": "cell-based", "conditions": "P. falciparum cultures in human erythrocytes", "experimental": "Plasmodium falciparum cultures with 5-6% parasitemia are diluted with washed 50% suspension of red blood cells and CRPMI so that the initial parasitemia becomes 1% and hematocrit 2%. 1.5 millilitres of this diluted infected cell suspension is placed in flat bottom vials, which are kept in a desiccator equipped with a stopcock. A candle is lit and the cover of the desiccator is put on with the stopcock open. When the candle goes out, the stopcock is closed. This is a simple but effective way to produce an atmosphere of low O2(1-5%) and high CO2 content (7%). Fresh medium is provided daily by withdrawing the supernatant and supplementing cells with 1.25 millilitres of CRPMI. Fresh erythrocytes are added every third or fourth day when the parasitemia reaches 6-8%, bringing it down to 1%. In cultures, all stages of the asexual cycle are seen at any one time, since the cultures have lost some of the synchronicity characteristic of P. falciparum in man. Delicate rings with two chromatin dots are common. Schizonts or segmenters show 15-18 merozoites, the same numbers seen in material from human infections.\nThis is done by observing the stained smear of infected red blood cells under the microscope in oil immersion. The following stages of Plasmodium falciparum with their characteristic features can be seen. These stages are as follows: • 1. […]"}, "Plasmodium berghei": {"test_system": "Plasmodium berghei", "test": "Protection of mice against malaria after administration in vivo (P. berghei infected mice)", "set-up": "species or system Swiss mice", "conditions": "for mice survived till day 14 / mice survived till 14th day: subcutaneously in DMSO, day 1 of infection and next 6 days, P. berghei infected male swiss mice", "description": "The present invention involves the use of triclosan for the manufacture of an antimalarial agent to inhibit the growth of the murine malaria parasite Plasmodium berghei as well. The effect of various concentration of triclosan in controlling parasitemia is monitored in Plasmodium berghei infected mice. • 1. Plasmodium berghei infection: P. berghei parasite is maintained in Swiss male mice through serial blood passage. • 2. Triclosan treatment: Swiss mice (5 animals/group) are infected on day zero with about 10^6 infected red blood cells (IRBC). The animals are kept under observation to record parasitemia and mortality. Parasitemia is determined by counting 10^3 red cells in a thin blood smear stained with Giesma and expressed as number of parasitized cells/100 erythrocytes. The animals given only dimethylsulfoxide (DMSO) are used as controls and referred to as untreated animals. Level of parasitemia is >1% on the first day of triclosan treatment. Parasitemia is monitored every 24 hrs, for 7-8 days.\nMale swiss mice were infected with P. berghei. The animals were kept under observation and parasitemia was recorded daily. Triclosan (0.8, 1.6, 3.0, 8.0, 14.0 and 28.0 mg/kg body weight of mice respectively) in DMSO was given subcutaneously on day 1 of infection when parasitemia was>1% and subsequently for the next 6 days. Experiments with triclosan were conducted with a group of five animals, each for the dosages mentioned above. DMSO was given to control animals (6) and were referred to as untreated animals. Parasitemia and mortality were recorded till the untreated mice died. Typically all the six mice in the control group died by day 9 of infection while 3, 3 and 4 mice out of 5 treated with 0.8, 1.6 and 3.0 mg triclosan/kg (body weight), survived till day 14. All the mice (5 out of 5) survived till 14th day when treated with 8.0, 14.0 and 28.0 mg triclosan/kg (body weight)."}, "[1]": {"test_system": "cell free system for the synthesis of fatty acids of Plasmodium falciparum", "test": "Incorporation of [14C] malonyl-CoA in fatty acids in cell free system, scintillation counting and TLC/autoradiography", "assay_type": "biochemical", "experimental": "For cell free fatty acid synthesis in E.Coli, See Δ P.W. Majerus et al. (1968), Methods in Enzymol, 14, 43-52.\nThe pellet was washed four to five times with cold phosphate buffer saline and after washing, the pellet was suspended in 3.0 ml of phosphate buffer saline and equal volume of 0.15% saponin was added to isolate free parasites. (See specific embodiments). The late ring stage (trophozoites) of the parasites thus isolated were washed once thoroughly with PBS and the cells suspended in 0.4 ml of 1 mM potassium phosphate buffer pH 7.0 and sonicated for 15 sec. The cell lysate (2.0 mg cell extract protein) thus prepared was mixed with 200 µl of 200 mM of potassium phosphate buffer pH 7.0 containing 70 uM acetyl CoA, 8 mM glucose-6-phosphate, 3 mM each of NADH and NADPH, 0.4 mM EDTA, 4 units of glucose-6-phosphate dehydrogenase, 45 uM [^14C]malonyl-CoA (specific activity 54.2 mCi/mmol, DuPont) and 3 mM dithiothreitol (DTT). To this 200 µg of DTT reduced acyl carrier protein (ACP) from E. coli (Sigma) in 25 µl of 75 mM phosphate buffer was added. The reaction mixture was incubated for 30 min at 37°C. […] A part (25 µl) of the sample in methanol was counted by scintillation counting to determine also the extent of incorporation of [^14C] malonyl-CoA in fatty acids both in the presence and absence of Triclosan."}, "P. falciparum": {"test_system": "P. falciparum", "test": "Uptake of [35S] methionine as an index of inhibition of parasite growth", "assay_type": "cell-based", "conditions": "P. falciparum in culture, different concentrations of triclosan (Fig. 5)", "experimental": "Uptake of [^35S] methionine, NEN, DuPont, (specific activity 1175 Ci/mmol) is used as an index of parasite growth. The final isotope concentration to be added in each well is 100 µCi/ml culture. Before an hour of total incubation period (24, 48, or 72 h) 20 µl of the isotope in culture medium is added to each well and incubated for an additional 1 hr. After incubation, contents of the well are pipetted into microcentrifuge tubes kept on ice. The samples are spun at 3000 g for 10 sec. The supernatant is discarded and the pellet washed twice in 1.0 ml of 0.9% NaCl. The pellet is lysed with 50 µl distilled water and spotted onto Whatman No. 3 discs (presoaked in 10% TCA with cold methionine and dried). After spotting, these discs are allowed to dry and then they are treated with hot TCA, cold TCA (10% throughout), alcohol ether (2:1, v/v) and finally with ether. […] The discs are air dried after ether treatment, and counted in optiphase 'Hisafe' scintillation fluid (Wallac Scintillation Products, U.K.) in a Wallac β-counter (Model 1409, Finland).\nThe drug and parasites were aliquoted in required number of rows of wells in 96 well titre plates as described in example 1. […] After ether treatment, the discs were air dried, placed in scintillation fluid phase III from Wallac and counted in Wallac β-counter."}}, "data": [{"molecule": "Oc1cc(Cl)ccc1Oc1ccc(Cl)cc1Cl", "note": "[triclosan, 2,4,4'-trichloro-2'-hydroxydiphenyl ether]", "values": [{"measurement": "growth of the human malaria parasite in vitro", "setting": "Plasmodium falciparum", "result": "inhibits the growth of the human malaria parasite in vitro in a very potent manner"}, {"measurement": "mice survived till day 14", "setting": "Plasmodium berghei; 0.8 mg/kg body weight", "result": "3 mice out of 5"}, {"measurement": "mice survived till day 14", "setting": "Plasmodium berghei; 1.6 mg/kg body weight", "result": "3 mice out of 5"}, {"measurement": "mice survived till day 14", "setting": "Plasmodium berghei; 3.0 mg/kg body weight", "result": "4 mice out of 5"}, {"measurement": "mice survived till 14th day", "setting": "Plasmodium berghei; 8.0 mg/kg body weight", "result": "5 out of 5"}, {"measurement": "mice survived till 14th day", "setting": "Plasmodium berghei; 14.0 mg/kg body weight", "result": "5 out of 5"}, {"measurement": "mice survived till 14th day", "setting": "Plasmodium berghei; 28.0 mg/kg body weight", "result": "5 out of 5"}, {"measurement": "mortality", "setting": "Plasmodium berghei; P. berghei infected Swiss mice, untreated animals die by 8 days after the infection", "result": "delayed mortality is observed in treated animals depending on dose"}, {"measurement": "parasitemia", "setting": "Plasmodium berghei; injection in mice infected with P. berghei", "result": "able to curtail the parasitemia"}, {"measurement": "incorporation of [^14C] malonyl CoA in fatty acids", "setting": "[1]; cell free system, 0.15, 0.225, 0.3, 0.6 and 1.2 µg of triclosan, 30 min at 37°C", "result": "inhibits incorporation of [^14C] malonyl CoA in fatty acids"}, {"measurement": "longer chain fatty acids synthesized (elongation reaction)", "setting": "[1]; cell free system, TLC with autoradiography", "result": "progressive decline in the longer chain fatty acids"}, {"measurement": "inhibition of protein synthesis, uptake of (^35S) methionine", "setting": "P. falciparum", "result": "reduced uptake of (^35S) methionine"}]}]}
